Laboratory results published in ChEMBL document CHEMBL3046841, “The synthesis and screening of the antimicrobial activity of some novel 3-(furan-2-yl)-1-(aryl)-3-(phenylthio) propan-1-one derivatives” (2011).
In brackets after ≈: the same amount, converted by molar mass.

How the values were obtained:
Type in all cases: functional
[1] = test system: Streptococcus pyogenes; experiment: Antimicrobial activity against Streptococcus pyogenes ATCC 176 after 24 hr by serial microdilution method; settings: ATCC 176, 24 h
[2] = test system: Staphylococcus aureus; experiment: Antimicrobial activity against Staphylococcus aureus ATCC 29213 after 24 hr by serial microdilution method; settings: ATCC 29213, 24 h
[3] = test system: Candida albicans; experiment: Antimicrobial activity against Candida albicans ATCC 1213 by serial microdilution method
[4] = test system: Cyberlindnera jadinii; experiment: Antimicrobial activity against Cyberlindnera jadinii KUEN 1031 serial microdilution method; settings: Williopsis jadinii
[5] = test system: Salmonella enteritidis; experiment: Antimicrobial activity against Salmonella enterica subsp. enterica serovar Enteritidis ATCC 13076 after 24 hr by serial microdilution method; settings: ATCC 13076, 24 h
[6] = test system: Proteus vulgaris; experiment: Antimicrobial activity against Proteus vulgaris KUEN 1329 at 105 ug/disk after 24 hr by disk diffusion method; settings: KUEN 1329, 24 h, read-out: IZ
[7] = test system: Bacillus cereus; experiment: Antimicrobial activity against Bacillus cereus DSM 4312 after 24 hr by serial microdilution method; settings: DSM 4312, 24 h
[8] = test system: Proteus vulgaris; experiment: Antimicrobial activity against Proteus vulgaris KUEN 1329 after 24 hr by serial microdilution method; settings: KUEN 1329, 24 h
[9] = test system: Bacillus cereus; experiment: Antimicrobial activity against Bacillus cereus DSM 4312 at 105 ug/disk after 24 hr by disk diffusion method; settings: DSM 4312, 24 h, read-out: IZ
[10] = test system: Escherichia coli; experiment: Antimicrobial activity against Escherichia coli 111 at 105 ug/disk after 24 hr by disk diffusion method; settings: Escherichia coli, 111, 24 h; read-out: IZ
[11] = test system: Pseudomonas aeruginosa; experiment: Antimicrobial activity against Pseudomonas aeruginosa ATCC 9027 after 24 hr by serial microdilution method; settings: ATCC 9027, 24 h
[12] = test system: Bacillus subtilis; experiment: Antimicrobial activity against Bacillus subtilis ATCC 6633 after 24 hr by serial microdilution method; settings: ATCC 6633, 24 h
[13] = test system: Candida albicans; experiment: Antimicrobial activity against Candida albicans ATCC 1213 at 105 ug/disk after 48 hr by disk diffusion method; settings: ATCC 1213, 48 h, read-out: IZ
[14] = test system: Cyberlindnera jadinii; experiment: Antimicrobial activity against Cyberlindnera jadinii KUEN 1031 at 105 ug/disc after 48 hr by disk diffusion method; settings: Williopsis jadinii, KUEN 1031, 48 h; read-out: IZ
[15] = test system: Escherichia coli; experiment: Antimicrobial activity against Escherichia coli 111 after 24 hr by serial microdilution method; settings: Escherichia coli, 111, 24 h
[16] = test system: Pseudomonas aeruginosa; experiment: Antimicrobial activity against Pseudomonas aeruginosa ATCC 27859 after 24 hr by serial microdilution method; settings: ATCC 27859, 24 h
[17] = test system: Pseudomonas aeruginosa; experiment: Antimicrobial activity against Pseudomonas aeruginosa ATCC 9027 at 105 ug/disk after 24 hr by disk diffusion method; settings: ATCC 9027, 24 h, read-out: IZ
[18] = test system: Salmonella enteritidis; experiment: Antimicrobial activity against Salmonella enterica subsp. enterica serovar Enteritidis ATCC 13076 at 105 ug/disk after 24 hr by disk diffusion method; settings: ATCC 13076, 24 h, read-out: IZ
[19] = test system: Streptococcus pyogenes; experiment: Antimicrobial activity against Streptococcus pyogenes ATCC 176 at 105 ug/disc after 24 hr by disc diffusion method; settings: ATCC 176, 24 h, read-out: IZ
[20] = test system: Pseudomonas aeruginosa; experiment: Antimicrobial activity against Pseudomonas aeruginosa ATCC 27859 at 105 ug/disk after 24 hr by disk diffusion method; settings: ATCC 27859, 24 h, read-out: IZ
[21] = test system: Bacillus subtilis; experiment: Antimicrobial activity against Bacillus subtilis ATCC 6633 at 105 ug/disk after 24 hr by disk diffusion method; settings: ATCC 6633, 24 h, read-out: IZ
[22] = test system: Staphylococcus aureus; experiment: Antimicrobial activity against Staphylococcus aureus ATCC 29213 at 105 ug/disc after 24 hr by disk diffusion method; settings: ATCC 29213, 24 h, read-out: IZ

SMILES	MIC [1] [µg/mL]	MIC [2] [µg/mL]	MIC [3] [µg/mL]	MIC [4] [µg/mL]	MIC [5] [µg/mL]	zone of inhibition at 105 µg/disc [6] [mm]	MIC [7] [µg/mL]	MIC [8] [µg/mL]	zone of inhibition at 105 µg/disc [9] [mm]	MIC [11] [µg/mL]	MIC [12] [µg/mL]	zone of inhibition at 105 µg/disc [13] [mm]	zone of inhibition at 105 µg/disc [14] [mm]	MIC [15] [µg/mL]	MIC [16] [µg/mL]	zone of inhibition at 105 µg/disc [17] [mm]	zone of inhibition at 105 µg/disc [18] [mm]	zone of inhibition at 105 µg/disc [19] [mm]	zone of inhibition at 105 µg/disc [20] [mm]	zone of inhibition at 105 µg/disc [21] [mm]	further results
O=C(CC(Sc1ccccc1)c1ccco1)c1ccc(Cl)cc1 (centres undefined)	125 (≈ 365 µM)	> 125	62.5 (≈ 182 µM)	62.5 (≈ 182 µM)	62.5 (≈ 182 µM)	14	31.2 (≈ 91.1 µM)	7.81 (≈ 22.8 µM)	10	> 125	> 125	14	14	62.5 (≈ 182 µM)	> 125	15	17	13	–	–	zone of inhibition at 105 µg/disc [10]: 10 mm
COc1ccc(C(=O)CC(Sc2ccccc2)c2ccco2)cc1 (centres undefined)	> 125	> 125	> 125	125 (≈ 369 µM)	> 125	–	62.5 (≈ 185 µM)	62.5 (≈ 185 µM)	–	62.5 (≈ 185 µM)	125 (≈ 369 µM)	12	12	62.5 (≈ 185 µM)	62.5 (≈ 185 µM)	13	–	13	–	–	zone of inhibition at 105 µg/disc [10]: 10 mm
O=C(CC(Sc1ccccc1)c1ccco1)c1ccc(Br)cc1 (centres undefined)	7.81 (≈ 20.2 µM)	> 125	15.6 (≈ 40.3 µM)	125 (≈ 323 µM)	62.5 (≈ 161 µM)	15	62.5 (≈ 161 µM)	15.6 (≈ 40.3 µM)	–	31.2 (≈ 80.7 µM)	31.2 (≈ 80.7 µM)	11	13	> 125	31.2 (≈ 80.7 µM)	15	17	–	–	–	–
O=C(CC(Sc1ccccc1)c1ccco1)c1cccc(Cl)c1 (centres undefined)	31.2 (≈ 91.1 µM)	31.2 (≈ 91.1 µM)	15.6 (≈ 45.6 µM)	15.6 (≈ 45.6 µM)	15.6 (≈ 45.6 µM)	17	31.2 (≈ 91.1 µM)	31.2 (≈ 91.1 µM)	11	15.6 (≈ 45.6 µM)	31.2 (≈ 91.1 µM)	17	15	> 125	62.5 (≈ 182 µM)	15	19	14	16	14	zone of inhibition at 105 µg/disc [22]: 16 mm
CO/N=C(\C(=O)N[C@@H]1C(=O)N2C(C(=O)O)=C(CSc3nc(=O)c(O)nn3C)CS[C@H]12)c1csc(N)n1 [CEFTRIAXONE]	3.9 (≈ 7.03 µM)	> 125	> 125	15.6 (≈ 28.2 µM)	125 (≈ 225 µM)	–	> 125	15.6 (≈ 28.2 µM)	–	15.6 (≈ 28.2 µM)	3.9 (≈ 7.03 µM)	–	–	> 125	> 125	–	–	–	–	–	–
O=C(CC(Sc1ccccc1)c1ccco1)c1ccccc1O (centres undefined)	3.9 (≈ 12 µM)	15.6 (≈ 48.2 µM)	125 (≈ 385 µM)	7.81 (≈ 24.1 µM)	31.2 (≈ 96.3 µM)	18	15.6 (≈ 48.2 µM)	7.81 (≈ 24.1 µM)	15	> 125	15.6 (≈ 48.2 µM)	21	15	15.6 (≈ 48.2 µM)	125 (≈ 385 µM)	14	19	17	17	17	zone of inhibition at 105 µg/disc [22]: 16 mm
O=C(CC(Sc1ccccc1)c1ccco1)c1ccccc1Cl (centres undefined)	15.6 (≈ 45.6 µM)	7.81 (≈ 22.8 µM)	15.6 (≈ 45.6 µM)	125 (≈ 365 µM)	15.6 (≈ 45.6 µM)	16	31.2 (≈ 91.1 µM)	31.2 (≈ 91.1 µM)	11	31.2 (≈ 91.1 µM)	31.2 (≈ 91.1 µM)	16	13	> 125	125 (≈ 365 µM)	14	18	–	14	15	zone of inhibition at 105 µg/disc [22]: 18 mm
